Experimental data from article PMC5654414, “In vitro and in vivo comparative and competitive activity-based protein profiling of GH29 α-L-fucosidases” (Chemical Science, 2015).

Experiments:
[1] = biological target: T1, retaining α-L-fucosidases (Mus musculus, UniProt Q99LJ1); assay: In vivo labeling of α-L-fucosidases in mice; set-up: species or system C57Bl/6J mice; details: any of the administered doses (10, 100, 1000 pmol), 2 h
T1 construct: from tissue; host or cells: C57Bl/6J mouse spleen, liver, kidney, brain (in vivo)
T1 sequence (Q99LJ1 18-452): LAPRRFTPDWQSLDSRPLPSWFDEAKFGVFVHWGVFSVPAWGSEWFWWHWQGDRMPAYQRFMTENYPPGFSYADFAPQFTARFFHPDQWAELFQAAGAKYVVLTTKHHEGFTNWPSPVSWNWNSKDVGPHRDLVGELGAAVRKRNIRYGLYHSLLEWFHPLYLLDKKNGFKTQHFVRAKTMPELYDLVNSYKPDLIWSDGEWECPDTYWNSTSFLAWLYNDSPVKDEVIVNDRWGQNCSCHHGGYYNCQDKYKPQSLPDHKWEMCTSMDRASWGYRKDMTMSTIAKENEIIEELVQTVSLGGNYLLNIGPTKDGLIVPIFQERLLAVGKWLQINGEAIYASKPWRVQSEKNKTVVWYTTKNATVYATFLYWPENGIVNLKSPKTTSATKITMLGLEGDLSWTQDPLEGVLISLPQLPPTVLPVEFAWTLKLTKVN
Experimental: The ability of 1 to label α-L-fucosidase in living mice was investigated next. Four wild-type C57Bl/6J male mice were injected with 100 μL vehicle (PBS) or PBS containing 10, 100 or 1000 pmol 1. After two hours, the mice were anesthetized, perfused with PBS and then brain, spleen, liver and kidney tissues were isolated. Tissue homogenates were prepared and each lysate was labeled prior to gel electrophoresis with red-fluorescent cyclophellitol β-aziridine JJB75, which labels β-exoglucosidases as loading control (ESI Fig. S6 ^†). Furthermore, tissue homogenates of vehicle-treated animals were labeled with excess 1 to visualize the maximal α-L-fucosidase labeling achievable in each tissue.
The appropriate ethics committee for animal experiments approved all experimental procedures. Wild-type C57Bl/6J male mice were obtained from Harlan and fed a commercially available lab diet (RMH-B; Hope Farms). Four C57BL/6J mice were injected intraperitoneally with 100 μL sterile PBS (vehicle) or PBS containing 10, 100, or 1000 pmol of ABP 1 (about 0.2 μg kg^–1, 2 μg kg^–1, and 20 μg kg^–1, respectively). At 2 h post-administration, urine was collected and the mice were anesthetized with FFM mix (25/25/50 fentanylcitrate/midazalam/H2O), blood was collected and perfused with PBS at 3.0 mL min^–1. Then urine and organs were collected and directly frozen in liquid nitrogen. Homogenates were made in 25 mM potassium phosphate buffer, pH 6.5, supplemented with 0.1% (v/v) Triton X-100 and protease inhibitor cocktail (Roche). After determination of protein concentration (BCA kit, Pierce), 50 μg total protein was incubated with 100 nM red fluorescent JJB75 and analyzed by SDS-PAGE. As controls, matching tissue homogenates of vehicle-treated animals were concomitantly labeled with 1 μM ABP 1 and 100 nM JJB75 prior to SDS-PAGE.

FUCA1 = biological target: T2, FUCA1 (Homo sapiens, UniProt P04066); assay: Fluorescent labeling kinetics, time course on SDS-PAGE; assay type: binding; set-up: expressed in transfected cells; host or cells: COS-7; details: 10 nM probe, stoichiometric rhFUCA1, 4 °C
T2 sequence (P04066 32-466): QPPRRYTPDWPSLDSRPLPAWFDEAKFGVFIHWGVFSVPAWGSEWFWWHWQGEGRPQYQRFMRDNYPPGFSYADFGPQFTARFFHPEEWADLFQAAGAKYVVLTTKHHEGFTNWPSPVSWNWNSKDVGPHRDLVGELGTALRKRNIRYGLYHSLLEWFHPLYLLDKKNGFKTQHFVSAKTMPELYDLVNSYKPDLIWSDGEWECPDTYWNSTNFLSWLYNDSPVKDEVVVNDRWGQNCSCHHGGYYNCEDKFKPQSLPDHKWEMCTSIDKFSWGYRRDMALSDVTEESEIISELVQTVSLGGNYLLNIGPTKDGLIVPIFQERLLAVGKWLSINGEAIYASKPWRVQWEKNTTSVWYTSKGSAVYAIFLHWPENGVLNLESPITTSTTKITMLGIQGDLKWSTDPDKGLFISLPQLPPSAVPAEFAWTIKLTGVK
Description: This rapid reaction with both 1 and 2 also precluded a classic determination of kinetic constants following a time-dependent decrease in detectable 4-methylumbelliferone (ESI Fig. S5b ^†).
Fig. S4. In vitro pH profile of recombinant FUCA1. A) In vitro labeling of COS-7 cell lysate containing over-expressed human FUCA1 at various pH with ABP 1. B) Relative in vitro labeling of FUCA1 with ABP 1 (closed squares) compared to relative enzymatic activity towards artificial 4-methylumbelliferyl-α-L-fucopyranoside substrate (open circles) at various pH. Data average of n = 3 experiments, ± standard deviation.
Fig. S5. In vitro inhibition kinetics of ABPs 1 and 2 towards recombinant human FUCA1. A) Stoichiometric in situ labeling of COS-7 lysate containing over-expressed human FUCA1 with 10 nM ABP 1 at 4°C and 37°C. B) Plots of Kobserved against the concentration of ABP 1 and 2. Rates determined through direct kinetic measurements of liberated 4-methylumbelliferone from 4-methylumbelliferyl-α-L-fucopyranoside substrate whilst in the presence of varying concentrations of ABP 1 and 2. […]

CC1=CC(C)=[N+]2C1=C(CCCCc1cn(CCCCCCCC(=O)N3[C@@H]4[C@@H](C)[C@@H](O)[C@@H](O)[C@H](O)[C@@H]43)nn1)c1c(C)cc(C)n1[B-]2(F)F [compound 1]
in vivo brain FUCA1 labeling [1]: no in vivo brain FUCA1 labeling was observed
completeness of labeling over time (FUCA1): near complete within the first minute
